What was measured:
[1] = tested on: Human umbilical vein endothelial cell; assay: In Vitro Angiogenesis Assay (morphogenesis / tube formation on Matrigel, ECMatrix kit); type: cell-based; parameters: key to Results (In Vitro Angiogenesis Assay score): Individual cells, well separated (+++++); Cells begin to migrate and align themselves (++++); Cells begin to line but not sprouting (+++); Visible Sprouting (++); Closed polygons begins to form (+); conditions: for Results (In Vitro Angiogenesis Assay score): HUVECs on ECMatrix, 8 hours at 37° C., inhibitors 1 mM and 10 mM, higher score = greater inhibition of angiogenesis
Protocol: Human umbilical vein endothelial cell was purchased from Cambrex Co. (East Rutherford, N.J.) and maintained in EGM (Endothelial Growth Medium) supplemented with 2% FBS, 0.1% EGF, 0.1% Hydrocortisone, 0.1% GA-1000 and 0.4% BBE.
The morphogenesis assay on Matrigel was performed according to the manufacturer's instructions (Chemicon International). The ECMatrix™ kit consists of laminin, collagen type IV, heparan sulfate, proteoglycans, entactin and nidogen. It also contains various growth factors (TGF-β, FGF) and proteolytic enzymes (plasminogen, tPA, MMPs) that are normally produced in EHS tumors. The incubation condition was optimized for maximal tube-formation as follows: 50 μl of EC Matrix™ was suitably diluted in the ratio 9:1 with 10× diluent buffer and used for coating the 96-well plate. The coated plates were incubated at 37° C. for 1 hr. to allow the Matrix solution to solidify. In the meantime the HUVECs that were cultured for 24 hours in EGM with 2% FBS was trypsinised and re-suspended in the growth media and the cells were counted. After 1 hr. pre-incubation of the plate with Matrix solution, the HUVECs were plated at 10^4 cells/well in the absence or in the presence of different VEGFR inhibitors (1 mM and 10 mM). After 8 hours incubation at 37° C., the cell three-dimensional organization (cellular network structures) was examined under an inverted photomicroscope. Each treatment was performed in triplicate.
Activated endothelial cells form cellular networks (mesh like structures) resembling capillary tubes sprouting into the stromal space. The formation of these cellular networks is a dynamic process, which started migration and alignment of cells followed by the development of capillary tubes like structures, sprouting of new branches and finally the formation of the cellular networks. Although this in vitro angiogenesis kit is designed only as a qualitative assay, we have made an attempt to quantitate the degree of angiogenesis using a scoring method. The scoring was based on the extent of the cellular networks that were observed as follows:
Individual cells, well separated (+++++)
Cells begin to migrate and align themselves (++++)
Cells begin to line but not sprouting (+++)
Closed polygons begins to form (+).
According to our qualitative assessment, the higher the scoring the greater the efficiency of the compound for inhibiting endothelial cell mediated angiogenesis.

MCF-7 = assay: Cytotoxicity towards breast carcinoma cell line MCF-7; type: cell-based
VEGFR = assay: Assay of VEGF Receptor Tyrosine Kinase Activity (VEGFR immunoprecipitated from cell lysate, non-radioactive PTK ELISA kit); type: biochemical
Description: Protein Tyrosine Kinases (PTKs) perform a critical role in signal transduction pathways that control cell proliferation, differentiation, metabolism, and apoptosis. Phosphorylation of proteins by PTKs is essential for the regulation of these biological mechanisms and defects in these pathways may result in a number of human diseases, including cancer. The important aspect of these enzymes in cellular regulation is accentuated by the fact that for a large number of kinases a corresponding viral oncogene product has been identified. […] CHEMICON's non-radioactive Tyrosine Kinase Activity Assay provides a simple, convenient and specific method for quantification and comparative determination of a wide range of PTKs. […]
The non-radioactive Tyrosine Kinase Activity Assay Kit consists of a synthetic Biotinylated Peptide Substrate, a Biotinylated Phosphopeptide, purified Phosphotyrosine specific monoclonal antibody conjugated to horseradish peroxidase (HRP) and other components required to perform 96 ELISA-based assays. […] The quantity of phosphate incorporated into the tyrosine kinase substrate is determined utilizing the phosphopeptide standard curve. […] The assay reaction would be terminated by the addition of 100 μl of stop solution and finally, the absorbance was measure on a standard microplate reader at 450 nm. […]

GI-101A = assay: Cytotoxicity towards breast carcinoma cell line GI-101A; type: cell-based

SMILES | Results (In Vitro Angiogenesis Assay score) [1] | other results
O=C(Nc1ccc2c(c1)C(=O)NC2=O)c1nc2ccccc2s1 [Example 1] | ++++ | –
N#Cc1ccc(C(=O)Nc2ccc3c(c2)C(=O)NC3=O)cc1 [Example 2] | +++ | –
CC(=O)c1ccc(C(=O)Nc2ccc3c(c2)C(=O)NC3=O)cc1 [Example 3] | ++ | –
O=C(Nc1cccc2c1C(=O)NC2=O)c1ccc([N+](=O)[O-])o1 [Example 4] | +++++ | cytotoxicity towards MCF-7 (MCF-7): produced cytotoxicity; EC50 ([1]; Homo sapiens, Endothelial cell, estimated, read-out: EC50 value for anti-antigenic effect): 25 nM; IC50 (VEGFR; VEGFR immunoprecipitated from cell lysate, PTK assay, read-out: IC50 for inhibiting VEGFR kinase): 400 nM; inhibition of VEGFR associated tyrosine kinase activity (in words) (VEGFR; level of inhibition increased with concentration): able to inhibit the VEGFR associated tyrosine kinase activity; cytotoxicity towards GI-101A (GI-101A): produced cytotoxicity
O=C(Nc1cccc2c1C(=O)NC2=O)c1ccc(S(=O)(=O)N2CCCCC2)cc1 [Example 5] | +++ | –
O=C(Nc1cccc2c1C(=O)NC2=O)c1ccc(Cl)s1 [Example 6] | +++ | –

From patent US7939557B2, “Vascular endothelial receptor specific inhibitors” (Nova Southeastern University, priority 2006, dated 2011)
